Test results published in patent US20090148506A1, “LIPOSOMAL FORMULATIONS COMPRISING SECONDARY AND TERTIARY AMINES AND METHODS FOR PREPARING THEREOF” (priority 2005, published 2009).
“Also recorded” adds a separate entry of the source.

How the values were obtained:
Type in all cases: physicochemical
[1] = Liposomal drug loading (encapsulation) at 50° C., Sephadex G-50 spin column, UV assay; details: for liposomal encapsulation (result in words): 50° C. (FIG. 2); for increase of irinotecan/lipid molar ratio: TEA containing liposomes (FIG. 10); for irinotecan encapsulation efficiency: 50° C.
Experimental: The lipids were labeled with trace amounts of ^3H-cholesteryl hexadecyl ether, a non-exchangeable, non-metabolizeable lipid marker to allow liposome quantitation by scintillation counting. The solvent was evaporated under a stream of nitrogen and dried under vacuum for at least 4 hours. […] The mean size distribution of the resulting large unilamellar vesicles (80-120 nm) was determined using a Nicomp submicron particle sizer model 370 (Nicomp, Santa Barbara, Calif.). For irinotecan loading, the solutions of irinotecan were made by dissolving the drug either in water at 50° C. or in sucrose phosphate buffer (300 mM sucrose, 40 mM phosphate) at room temperature. When necessary, the pH of the solution was adjusted to the desired value using NaOH. The final concentration of irinotecan was 15 mM. […] The precipitate was isolated by centrifugation (12000 rpm, 15 min) and was solubilized with 2 mM EDTA in water. Similar preparations were employed for daunorubicin. For liposomal loading, the drug solution and the liposomes were incubated separately at 50° C. for approximately five minutes to equilibrate the temperature. […] Aliquots of 75 μl were applied to a Sephadex G-50 spin column. The columns were prepared by adding glass wool to a 1 ml syringe and Sephadex G-50 beads hydrated in sucrose phosphate buffer (300 mM sucrose, 40 mM phosphate, pH 7.0). The columns were packed by spinning at 290×g for 1 minute. Following addition of the sample to the column, the liposome fraction was collected in the void volume by centrifuging at 515×g for 1 minute. Aliquots of the spin column eluant and the pre-column solution were taken and analyzed by liquid scintillation counting to determine the lipid concentration at each time point. The irinotecan concentration in each liposomal fraction was determined using a UV-based assay. […] The samples were cooled to ambient temperature. The absorbance at 370 nm was measured and compared to a standard curve. The concentration of TEA was determined by HPLC.

[2] = Lactone/carboxylate form of irinotecan in solution (FTIR, HPLC)
Description: FTIR measurements were made at room temperature in transmission mode using a Nicolet Nexus 870 spectrometer (Nicolet Instrument, Madison, Wis., USA) equipped with a liquid nitrogen-cooled mercury cadmium telluride detector. […] Inc. Buena, N.J.). The sample was dried with a stream of nitrogen and left overnight in a desiccator before recording the spectra. For each spectrum, 250 scans were co-added at a 4 cm^−1 resolution, using a Happ-Genzel apodization. Data analysis was done using the Grams AI software (Galactic Industries, Salem, N.H., USA). The second derivative of the spectra was performed to determine the frequency of the components of unresolved bands. Vibrational spectroscopy was used to further investigate the potential interaction between irinotecan and copper in free solution. […] Since irinotecan has several possible binding sites, tentative assignment of the bands of the spectra to its functional groups was performed in order to identify which group is involved in an interaction with copper gluconate/TEA. The C═O stretching absorption bands appear in the region of 1870-1540 cm^−1. The position of the carbonyl bands is affected by several factors including intermolecular and intramolecular hydrogen bonding. […] This conversion to the carboxylate form was confirmed by HPLC analysis. […]

[3] = Irinotecan loading into diethanolamine buffered liposomes at 50° C.; details: 100 mM copper gluconate/140 mM diethanolamine pH 7.0 inside, sucrose/phosphate/EDTA buffer outside, target drug to lipid ratio 0.1 (FIG. 13)
Experimental: DSPC, cholesterol and DSPG were weighed out into capped scintillation vials. DSPC was dissolved in chloroform at 60 mg/ml, cholesterol was dissolved in chloroform at 25 mg/ml, and DSPG was dissolved in chloroform:methanol:water (50/10/1) at 30 mg/ml. The lipids were then combined in the appropriate proportions. […] A stream of N2 gas, while heating the mixture, was used to remove solvent. The resulting lipid films were left under vacuum for a few minutes, then redissolved in chloroform. The drying process was then repeated, and the lipid films were allowed to dry on a vacuum pump for 4+hours. […] MLVs were extruded at 70° C. through two 100 nm filters for a total of eight passes without difficulty. The liposomes were then allowed to cool down to room temperature. Samples were buffer exchanged into 300 mM sucrose/20 mM phosphate/10 mM EDTA, pH 7.0 by tangential flow. […] Clinical material of Irinotecan was used for a Irinotecan stock. Drug and liposome samples were pre-heated separately at 50° C. for 5 minutes, then combined at t=0. […] Samples of the spun column eluant and the pre-column solution were counted by liquid scintillation counting to determine the lipid concentration at each time point. Irinotecan concentrations were determined using a UV assay. […] Irinotecan is quantitated by absorbance at 370 nm against a standard curve.

SMILES | liposomal encapsulation (result in words) ([1]; triethanolamine hydrochloride internal solution, pH 7.0) | liposomal encapsulation (result in words) ([1]; triethanolamine/sodium gluconate/HCl internal solution, pH 7.0) | form of irinotecan in solution ([2]; pH 7.0 (data not shown)) | form of irinotecan in solution ([2]; pH 8.7, confirmed by HPLC) | liposomal encapsulation (result in words) [3] | liposomal loading (result in words) ([1]; TEA buffered internal solution pH 7.0, external phosphate buffer pH 7.0, 50° C. (FIG. 1)) | increase of irinotecan/lipid molar ratio ([1]; after 2 min at 50° C.) | increase of irinotecan/lipid molar ratio ([1]; after 60 min at 50° C.) | irinotecan encapsulation efficiency ([1]; copper gluconate/TEA containing liposomes (100 mM copper gluconate/180 mM TEA, pH 7.0)) | irinotecan concentration inside the liposomes upon encapsulation ([1]; intra-liposomal) | irinotecan encapsulation efficiency ([1]; liposomes containing 10 mM sodium gluconate/180 mM TEA, pH 7.0) | irinotecan encapsulation efficiency ([1]; liposomes containing TEA/phosphate buffer (150 mM TEA, 95 mM phosphate, pH 7.0), 0.2:1 drug to lipid (mol:mol)) | drug loading (result in words) ([1]; liposomes containing copper gluconate adjusted to pH 7.0 with NaOH (no TEA)) | drug encapsulation (result in words) ([1]; liposomes containing sucrose phosphate buffer (no TEA)) | reduction of the amount of drug loading ([1]; liposomes with 100 mM copper gluconate, TEA decreased to 90 mM, pH 7.0 (FIG. 11)) | irinotecan encapsulation ([1]; liposomes with 100 mM copper gluconate, TEA increased to 270 mM, pH 7.0 (FIG. 11))
COc1cccc2c1C(=O)c1c(O)c3c(c(O)c1C2=O)C[C@@](O)(C(C)=O)C[C@@H]3O[C@H]1C[C@H](N)[C@H](O)[C@H](C)O1 [daunorubicin] | successfully encapsulated | successfully encapsulated |  |  |  |  |  |  |  |  |  |  |  |  |  | 
CCc1c2c(nc3ccc(OC(=O)N4CCC(N5CCCCC5)CC4)cc13)-c1cc3c(c(=O)n1C2)COC(=O)[C@]3(O)CC [irinotecan] |  |  | predominantly in its lactone form | primarily in the carboxylate form | successfully encapsulated | successfully loaded | 0.08 μmol irinotecan/μmol lipid | 0.13 μmol irinotecan/μmol lipid | approximately 70% | > 50 mM | 70% | approximately 70% | negligible; also recorded: no loading | no drug encapsulation | 50% | approximately 90%
